Peptide text beside a SMILES is read from it. * marks the point of attachment. X2 = O=C(Cc1ccc2ccccc2c1)N[C@H](Cc1ccccc1)C(=O)N[C@H](Cc1ccccc1)C(=O)N[C@H](CCCCN*)C(=O)NCCNc1ccc([N+](=O)[O-])c2nonc12; X3 = O=C(Cc1ccc2ccccc2c1)N[C@@H](Cc1ccccc1)C(=O)N[C@@H](Cc1ccccc1)C(=O)N[C@@H](CCCCN*)C(=O)N[C@@H](Cc1ccc(O)cc1)C(=O)O; X1 = O=C(Cc1ccc2ccccc2c1)N[C@H](Cc1ccccc1)C(=O)N[C@H](Cc1ccccc1)C(=O)N[C@H](CCCCN*)C(=O)N[C@H](Cc1ccc(O)cc1)C(=O)O
Assays:
HeLa cells [1] = test: Cell viability / cytotoxicity (MTT) assay, HeLa; assay type: cell-based
HeLa cells [2] = test: Cell viability after GFP-TP53 plasmid transfection, HeLa; assay type: cell-based, human; settings: single agent: free GFP-TP53 plasmid (5 μg/mL) or Mito-Flag (200 μM), 3rd day
Protocol: (§1) FIGS. 24A-G show how perimitochondrial ENS causes mitochondrial transgene expression to induce mitophagy or apoptosis. FIG. 24A is a Western blot analysis of FUNDC1 and LC3B levels in the mitochondria fraction and cytosolic fraction, respectively, of HeLa cells incubated with conditions of interest. VDAC1 serves as mitochondria protein loading control. FUNDC1 plasmid: 5 μg/mL, Mito-Flag: 200 μM, Time: 2 days. FIG. 24B is a panel of fluorescent images showing that Mito-Flag perimitochondrial ENS delivering FUNDC1 gene into mitochondria to induce mitochondrial morphology changes within 2 days. FIG. 24C is a panel of fluorescent images showing that the detection of mitophagy via immunofluorescent staining of autophagy marker, LC3 (2nd day). FIG. 24D is a panel of fluorescent images of HeLa cells incubated with free GFP-TP53 plasmid and the plasmid mixed with Mito-Flag (200 μM, 24 h). FIG. 24E is a graph illustrating cell viability of HeLa, Saos-2, and HS-5 cells incubated with free GFP-TP53 plasmid (5 μg/mL), Mito-Flag (200 μM), and the plasmid (5 μg/mL) mixed with Mito-Flag (200 μM, 3rd day). Data are presented as mean±standard deviation. FIG. 24F is a panel of fluorescent images showing an apoptosis analysis on HeLa and HS-5 cells. […]

Saos-2 cell = test: Cell viability after GFP-TP53 plasmid transfection, Saos-2; assay type: cell-based, human; settings: Saos-2, single agent: free GFP-TP53 plasmid or Mito-Flag
Protocol: as §1

HS-5 cells = test: Cell viability after GFP-TP53 plasmid transfection, HS-5; assay type: cell-based, human; settings: HS-5, GFP-TP53 plasmid (5 μg/mL) mixed with Mito-Flag (200 μM), 3rd day
Protocol: as §1

HeLa cells [3] = test: Uptake and mitochondrial localization of NBD-Mito-Flag in HeLa cells in the presence of inhibitors; assay type: cell-based, human; settings: NBD-Mito-Flag 200 μM; for mitochondrial localization of NBD-Mito-Flag: HeLa, with inhibitor (chloroquine 10 μM; erastin; Ndz 10 μM, 1 h pretreatment; FCCP pretreatment); for uptake of NBD-Mito-Flag (intracellular fluorescence): 2 h, with endocytosis inhibitor (CPZ 5 μM)
Protocol: FIG. 26B is a panel of confocal fluorescence images of HeLa cells incubated with NBD-Mito-Flag (200 μM) and chloroquine (10 μM). […] FIG. 26D is a panel of TEM images of mitochondria isolated from HeLa, HEK293 and HS-5 cells incubated with 200 μM Mito-Flag for 24 h. […] FIG. 26E and FIG. 26F are fluorescent images of NBD-Mito-Flag and RFP-LAMP1 in ENTK-knockdown HeLa cells. […] FIG. 26G-H are fluorescent images of the HeLa cells incubated with NBD-Mito-Flag (200 μM, 2 h) (FIG. 26G) or the mixture of virus (RFP-LAMP1) and Mito-Flag (200 μM, 24 h) (FIG. 26H) in the presence of erastin of different concentrations. […] FIG. 26I is a panel of fluorescent images of HeLa cells incubated with NBD-Mito-Flag (200 μM, 2 h) after the pretreatment by Ndz (10 μM, 1 h).
Intracellular Fluorescence Quantification: Cells were seeded in petri dishes and incubated in standard condition for 12 h before experiment. After being treated by the condition of interest, all cells were washed by PBS (3 time for 5 min). After the washing step, cells were detached from the dishes using trypsin. The trypsin was removed by centrifuge and washing with PBS. The cell suspensions (in PBS) were diluted to 10^5 cell/mL. 100 μL diluted cell suspension was added in a 96-well plate (at least 5 wells per sample). The intracellular fluorescence intensity was immediately determined using a DTX 880 Multimode Detector (Beckman Coulter Inc.). The experiments were repeated, and the intracellular fluorescence intensity was averaged (n>3).

MT-CO1-KO cancer cells = test: Sensitivity of MT-CO1-KO cancer cells to chemotherapeutic agents; assay type: cell-based, human; settings: MT-CO1 knocked out via Mito-Flag and CRISPR-MT-CO1 plasmid

| Molecule | cytotoxicity of branched peptide alone (HeLa cells [1]) | cytotoxicity of branched peptide alone (U87MG cells) | mitochondrial localization of NBD-Mito-Flag (HeLa cells [3]) | further results |
| --- | --- | --- | --- | --- |
| NCCCC[C@H](NC(=O)[C@H](CC(=O)O)NC(=O)[C@H](CC(=O)O)NC(=O)[C@H](CC(=O)O)NC(=O)[C@H](CC(=O)O)NC(=O)[C@H](CCCCN)NC(=O)[C@H](Cc1ccc(O)cc1)NC(=O)[C@@H](N)CC(=O)O)C(=O)NCC(=O)NCCCC[C@@H](NC(=O)[C@@H](Cc1ccccc1)NC(=O)[C@@H](Cc1ccccc1)NC(=O)Cc1ccc2ccccc2c1)C(=O)NCCNc1ccc([N+](=O)[O-])c2nonc12 [D-1 ? FLAG] (H-DYKDDDDKG-X2) | little cytotoxicity | little cytotoxicity |  |  |
| NCCCC[C@H](NC(=O)[C@H](CC(=O)O)NC(=O)[C@H](CC(=O)O)NC(=O)[C@H](CC(=O)O)NC(=O)[C@H](CC(=O)O)NC(=O)[C@H](CCCCN)NC(=O)[C@H](Cc1ccc(O)cc1)NC(=O)[C@@H](N)CC(=O)O)C(=O)NCC(=O)NCCCC[C@@H](NC(=O)[C@@H](Cc1ccccc1)NC(=O)[C@@H](Cc1ccccc1)NC(=O)Cc1ccc2ccccc2c1)C(=O)N[C@H](Cc1ccc(O)cc1)C(=O)O [D-2 ? FLAG] (H-DYKDDDDKG-X1) | minimal cytotoxicity | minimal cytotoxicity |  | cell viability (HeLa cells [2]): hardly causes cell death; cell viability (Saos-2 cell): innoxious; cell viability (HS-5 cells): neither free GFP-TP53 plasmid nor the mixture of Mito-Flag and GFP-TP53 plasmid impairs the viability of HS-5 cells |
| N#CC(C#N)=NNc1ccc(OC(F)(F)F)cc1 [FCCP, p-trifluoromethoxy carbonylcyanide phenylhydrazone] |  |  | diminishes the mitochondria-specific localization |  |
| NCCCC[C@H](NC(=O)[C@H](CC(=O)O)NC(=O)[C@H](CC(=O)O)NC(=O)[C@H](CC(=O)O)NC(=O)[C@H](CC(=O)O)NC(=O)[C@H](CCCCN)NC(=O)[C@H](Cc1ccc(O)cc1)NC(=O)[C@@H](N)CC(=O)O)C(=O)NCC(=O)NCCCC[C@H](NC(=O)[C@H](Cc1ccccc1)NC(=O)[C@H](Cc1ccccc1)NC(=O)Cc1ccc2ccccc2c1)C(=O)N[C@@H](Cc1ccc(O)cc1)C(=O)O [L-2 ? FLAG] (H-DYKDDDDKG-X3) | minimal cytotoxicity | minimal cytotoxicity |  |  |
| CCN(CC)CCCC(C)Nc1ccnc2cc(Cl)ccc12 (stereo not drawn) [chloroquine] |  |  | significantly reduced mitochondrial localization |  |
| CN(C)CCCN1c2ccccc2Sc2ccc(Cl)cc21 [chlorpromazine] |  |  |  | uptake of NBD-Mito-Flag (intracellular fluorescence) (HeLa cells [3]): significantly decreases the intracellular fluorescence |
| N.N.[Cl][Pt][Cl] [cisplatin] |  |  |  | sensitivity of MT-CO1-KO cancer cells versus wild type (MT-CO1-KO cancer cells): more sensitive |
| COC(=O)Nc1nc2ccc(C(=O)c3cccs3)cc2[nH]1 [nocodazole] |  |  | weakened mitochondrial fluorescence |  |
| M-β-CD |  |  |  | uptake of NBD-Mito-Flag (intracellular fluorescence) (HeLa cells [3]): hardly affects the uptake |
